Measurements published in patent US9137996B2, “Fungicidal alkyl- and aryl-substituted 2[-2-chloro-4-(dihalo-phenoxy)-phenyl]-1-[1,2,4]triazol-1-yl-ethanol compounds” (BASF SE, priority 2011, dated 2015).

Tested on: Phakopsora pachyrhizi
Experiment: Protective control of soy bean rust on soy beans (Phakpa P1), green house
Type: in vivo, Phakopsora pachyrhizi on soy bean seedlings
Details: 300 ppm active substance, sprayed 1 day before inoculation, assessed after fourteen days; untreated plants 90% infected
Experimental: The spray solutions were prepared in several steps:
The stock solution were prepared: a mixture of acetone and/or dimethylsulfoxide and the wetting agent/emulsifier Wettol, which is based on ethoxylated alkylphenoles, in a relation (volume) solvent-emulsifier of 99 to 1 was added to 25 mg of the compound to give a total of 5 ml. Water was then added to total volume of 100 ml. This stock solution was diluted with the described solvent-emulsifier-water mixture to the given concentration. 1. Protective control of soy bean rust on soy beans caused by Phakopsora pachyrhizi (Phakpa P1)
Leaves of pot-grown soy bean seedlings were sprayed to run-off with an aqueous suspension, containing the concentration of active ingredient or their mixture as described below. The plants were allowed to air-dry. The trial plants were cultivated for 1 day in a greenhouse chamber at 23-27° C. and a relative humidity between 60 and 80%.Then the plants were inoculated with spores of Phakopsora pachyrhizi. To ensure the success the artificial inoculation, the plants were transferred to a humid chamber with a relative humidity of about 95% and 20 to 24 C for 24 h. The trial plants were cultivated for fourteen days in a greenhouse chamber at 23-27° C. and a relative humidity between 60 and 80%. The extent of fungal attack on the leaves was visually assessed as % diseased leaf area.

With `CC(O)(Cn1cncn1)c1ccc(Oc2ccc(Cl)cc2Cl)cc1Cl` (stereo not shown) [I-1, 2-[2-chloro-4-(2,4-dichlorophenoxy)phenyl]-1-(1,2,4-triazol-1-yl)propan-2-ol] the “infection (extent of fungal attack, % diseased leaf area)” value was 10%.
